13 compounds from patent publication US20230391748A1, “BICYCLIC INHIBITORS OF IRAK” (priority 2022, published 2023) can be followed below.

The target of experiment [1] is IRAK4 (Homo sapiens (Human), UniProt Q9NWZ3). Nature of the experiment: IRAK4 ADP-Glo Assay. The experiment is classed as biochemical. The settings on record: MBP substrate. How it is done:
The ADP-Glo™ reagents were thawed at ambient temperature. The Kinase Detection Reagent was prepared by mixing kinase detection buffer with the lyophilized kinase detection substrate, and set aside.
A stock volume of 5× Reaction Kinase Buffer was made with a final concentration of 100 mM MgCl2, 200 mM Tris-HCl, and 0.5 mg/ml of BSA, in distilled H2O with a final pH7.4. A 2× working stock volume of Reaction Kinase Buffer was made containing a final concentration of 100 μM DTT.
The components of IRAK4 Enzyme were thawed on ice. Diluted IRAK4 in 1× Kinase Reaction Buffer (diluted from 2× buffer) was prepared at 5.0 ng/μl.
Then diluted 1:5 in 2× Reaction Buffer in a 96 well plate. 1.0 μl was transferred to a 384 well plate in duplicate. […] 1 μl of 1 mg/ml stock solution of MBP substrate was added NOTE: MBP can be combined with ATP mix with equal volume and then added at 2 μl/well. Final reaction volume was 5 μl.
The plate was centrifuged and the reaction mixture was incubated at room temperature for 60 minutes or at 30° C. for 30 minutes.
The reaction was terminated and the remaining ATP was depleted by adding 5 μl of ADP-Glo™ Reagent. The 384-well plate was centrifuged and then the reaction mixture was incubated for another 40 minutes at ambient temperature.
10 μl of the Kinase Detection Reagent was added. The plate was centrifuged and then the reaction mixture was incubated for another 30 minutes at ambient temperature.
The 384-well reaction plate was read using the WALLAC plate reader (Luminescence 0.1s).

Experiment [2] concerns IL23p19 in THP-1 Cells. In words: LPS Induced IL23p19 in THP-1 Cells (with IFNγ Primed) Assay. The format is cell-based. Conditions: Homo sapiens, THP-1, 18 h, read-out: IL23 (THP, LPS) (IC50, μM). As for the experimental part:
LPS Induced IL23p19 in THP-1 Cells (with IFNγ Primed) Assay
On day 1, 50K/well THP-1 cells were seeded and primed with IFNγ (50 ng/mL) in 384-well plates for about 18 hours in RPMI media with 10% FBS. […] 50 μL/well 2× compound was added to 50 μL/well THP-1 cells (with IFNγ primed) in duplicate in 384 well tissue culture plates. […] Day 3, after stimulation for 18 hours at 37° C., 5% CO2, the assay plate was centrifuged and 70 μL/well supernatant was harvested. IL-23p19 protein in 70 µL/well of supernatant was measured by sandwich ELISA, and 25 μl/well Cell Titer Glo reagent was added to the remaining cells to measure compound toxicity.
Maxisorp immuno ELISA plates were pre-coated with 25 μL/well of anti-IL-23p19 capture antibody (2.5 ug/mL) in PBS overnight at room temperature. […] 25 μL/well of biotin labeled anti-IL-12(p40/p70) detection antibody (100 ng/mL) in PBS with 1% BSA was added and the plates were incubated at room temperature for 2 hours with shaking. […] The plates were read with a luminometer, and the chemiluminescence values were entered into Athena (Rigel) for curve fitting, EC50 calculation, and database storage.

The subject of experiment [3] is TNF-α in human PBMCs. Nature of the experiment: R848-induced TNF-α in human PBMCs Assay. The settings on record: Homo sapiens, PBMC, 4 h, read-out: TNFα (PBMC, R848) (IC50, μM). The format is cell-based. As for the experimental part:
R848-induced TNF-α in human PBMCs Assay
100 μL/well PBMCs (200K/well) were seeded in 96-well flat-bottom tissue culture plates. […] 100 μL/well 2× compound was added to the PBMC in the tissue culture plates. […] The cells were stimulated with R848 for an additional 4 hours at 37° C., 5% CO2. The supernatant (100 μl/well) was harvested to measure TNF-α by ELISA. […] The chemiluminescence values were entered into Athena (Rigel) for curve fitting, EC50 calculation, and database storage.
(§1) TNF-α ELISA was performed according to the vendor protocol, using 96 Well Flat-Bottom, MaxiSorp Black Immuno plates and 100 μL/well of supernatant. The plates were developed using 100 μL/well of Super Signal ELISA Pico Chemiluminescent Substrate. The plates were read with a luminometer, and the chemiluminescence values were entered into Athena (Rigel) for curve fitting, EC50 calculation, and database storage.

The test system of experiment [4] is TNF-α in Human Primary Monocyte-Derived Dendritic Cells. Nature of the experiment: Gardiquimod-Induced TNF-α in Human Primary Monocyte-Derived Dendritic Cells. The format is cell-based. Conditions: Dendritic cell, IFNγ-primed monocyte-derived dendritic cells, 4 μg/ml Gardiquimod, 6 hours, TNF-α ELISA, read-out: TNFα (DC, GARD) (IC50). As for the experimental part:
Gardiquimod-Induced TNF-α in Human Primary Monocyte-Derived Dendritic Cells
After 2 hours, the media including floating cells was carefully removed and 12 ml of fresh RPMI media (10% FBS) containing GM-CSF (100 ng/ml) and IL-4 (20 ng/ml) were added to the adherent monocytes. The monocytes were allowed to differentiate for 7 days at 37° C., 5% CO2 for 7 days, supplementing with fresh GM-CSF and IL-4 after 3 days. The differentiated dendritic cells (DC) were harvested by centrifugation (1200 rpm/5 min). The DCs were primed at 37° C., 5% CO2 for 24 hours with 50 ng/ml IFN-γ (1000 U/ml) at 50K/well in 100 μl/well of fresh RPMI media (10% FBS) in a white clear bottom 96 well plate.
The primed DCs were pre-incubated with test compound for 1 hour at 37° C., 5% CO2 by adding 100 μl of RPMI media containing 2× concentrated test compound per well (0.5% final DMSO concentration).
DCs were stimulated with Gardiquimod (10 μl per well of 20× concentrated Gardiquimod solution in RPMI media to give a final concentration of 4 μg/ml) at 37° C., 5% CO2 for an additional 6 hours. The supernatant (100 μl/well) was harvested to measure TNF-α by ELISA. […] The chemiluminescence values were entered into Athena (Rigel) for curve fitting, EC50 calculation, and database storage.
as §1

Chain of IRAK4 (Q9NWZ3 whole entry): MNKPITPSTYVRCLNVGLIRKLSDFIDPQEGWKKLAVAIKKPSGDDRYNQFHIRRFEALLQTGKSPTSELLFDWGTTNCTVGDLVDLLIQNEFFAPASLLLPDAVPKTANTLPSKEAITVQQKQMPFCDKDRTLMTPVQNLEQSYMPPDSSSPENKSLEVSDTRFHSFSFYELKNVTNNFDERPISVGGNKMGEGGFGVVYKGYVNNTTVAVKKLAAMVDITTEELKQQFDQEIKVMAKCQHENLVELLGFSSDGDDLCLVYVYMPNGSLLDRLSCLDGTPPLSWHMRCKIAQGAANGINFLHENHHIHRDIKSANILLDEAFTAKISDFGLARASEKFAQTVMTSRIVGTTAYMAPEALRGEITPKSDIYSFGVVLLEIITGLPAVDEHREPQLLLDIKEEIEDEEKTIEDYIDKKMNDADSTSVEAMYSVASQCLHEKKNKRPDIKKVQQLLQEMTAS

For `CC(C)Oc1cc2c(OC[C@@H]3CCC(=O)N3)ncc(C#CC3(O)CCNCC3)c2cc1C(N)=O` [Compound I-13, (S)-4-((4-hydroxypiperidin-4-yl)ethynyl)-7-isopropoxy-1-((5-oxopyrrolidin-2-yl)methoxy)isoquinoline-6-carboxamide], the IC50 in experiment [1] was 14.9 nM; in experiment [2] it was 4.64 µM; in experiment [3], 4.67 µM; in experiment [4], 3500 nM.

Consider `CC(C)Oc1cc2c(OC[C@@H]3CCC(=O)N3)ncc(C#CC3CCN(C(=O)OC(C)(C)C)CC3)c2cc1C(N)=O` [Compound I-15, tert-butyl (S)-4-((6-carbamoyl-7-isopropoxy-1-((5-oxopyrrolidin-2-yl)methoxy)isoquinolin-4-yl)ethynyl)piperidine-1-carboxylate], for which the IC50 in experiment [1] was determined as 15.9 nM; in experiment [2], 0.525 µM; in experiment [3], 0.0874 µM; in experiment [4] it was 71.9 nM.

Consider `COC(=O)N1CCC(C#Cc2cnc(OC[C@@H]3CCC(=O)N3)c3cc(OC(C)C)c(C(N)=O)cc23)CC1` [Compound I-16, methyl (S)-4-((6-carbamoyl-7-isopropoxy-1-((5-oxopyrrolidin-2-yl)methoxy)isoquinolin-4-yl)ethynyl)piperidine-1-carboxylate], for which the IC50 in experiment [1] was 11.9 nM; in experiment [2], 0.0886 µM; in experiment [3], 0.0474 µM; in experiment [4] it was 245 nM.

For the compound `CC(C)Oc1cc2c(OC[C@@H]3CCC(=O)N3)ncc(C#CC3CCNCC3)c2cc1C(N)=O` [Compound I-17, (S)-7-isopropoxy-1-((5-oxopyrrolidin-2-yl)methoxy)-4-(piperidin-4-ylethynyl)isoquinoline-6-carboxamide], the IC50 in experiment [1] was 1.7 nM; in experiment [2], 11.2 µM; in experiment [3], 1.33 µM; in experiment [4], 17200 nM.

With `CC(C)Oc1cc2c(OC[C@@H]3CCC(=O)N3)ncc(C#CC3CCN(C)CC3)c2cc1C(N)=O` [Compound I-18, (S)-7-isopropoxy-4-((1-methylpiperidin-4-yl)ethynyl)-1-((5-oxopyrrolidin-2-yl)methoxy)isoquinoline-6-carboxamide], the concentration for half-maximal inhibition (IC50) in experiment [1] is 2.3 nM; in experiment [2] it was 0.606 µM; in experiment [3] it was 0.306 µM; in experiment [4], 203 nM.

Consider `CCO[C@H]1CC[C@H](C#Cc2cnc(OC[C@@H]3CCC(=O)N3)c3cc(OC(C)C)c(C(N)=O)cc23)CC1` [Compound I-20, 4-(((1r,4S)-4-ethoxycyclohexyl)ethynyl)-7-isopropoxy-1-(((S)-5-oxopyrrolidin-2-yl)methoxy)isoquinoline-6-carboxamide], for which the IC50 in experiment [1] is 7 nM; in experiment [2], 0.11 µM; in experiment [3] it was 0.0688 µM; in experiment [4], 63.4 nM.

For the compound `CCO[C@H]1CC[C@@H](C#Cc2cnc(OC[C@@H]3CCC(=O)N3)c3cc(OC(C)C)c(C(N)=O)cc23)CC1` [Compound I-21, 4-((cis-4-ethoxycyclohexyl)ethynyl)-7-isopropoxy-1-(((S)-5-oxopyrrolidin-2-yl)methoxy)isoquinoline-6-carboxamide], the IC50 in experiment [1] was found to be 5.6 nM; in experiment [2], 0.194 µM; in experiment [3] it was 0.104 µM; in experiment [4], 101 nM.

As to `CC(C)Oc1cc2c(OC[C@@H]3CCC(=O)N3)ncc(C#C[C@H]3CC[C@](C)(O)CC3)c2cc1C(N)=O` [Compound I-22, 4-(((1r,4S)-4-hydroxy-4-methylcyclohexyl)ethynyl)-7-isopropoxy-1-(((S)-5-oxopyrrolidin-2-yl)methoxy)isoquinoline-6-carboxamide], the IC50 in experiment [1] worked out at 12.3 nM; in experiment [2], 0.208 µM; in experiment [3] it was 0.049 µM; in experiment [4] it was 72.9 nM.

For `CC(C)Oc1cc2c(OC[C@@H]3CCC(=O)N3)ncc(C#C[C@H]3CC[C@@](C)(O)CC3)c2cc1C(N)=O` [Compound I-23, 4-(((1s,4R)-4-hydroxy-4-methylcyclohexyl)ethynyl)-7-isopropoxy-1-(((S)-5-oxopyrrolidin-2-yl)methoxy)isoquinoline-6-carboxamide], the half-maximal inhibitory concentration (IC50) in experiment [1] was found to be 11.4 nM; in experiment [2], 0.712 µM; in experiment [3], 2.12 µM; in experiment [4], 566 nM.

For `CC(C)Oc1cc2c(OC[C@@H]3CCC(=O)N3)ncc(C#CC3CN(C(=O)OC(C)(C)C)C3)c2cc1C(N)=O` [Compound I-24, tert-butyl (S)-3-((6-carbamoyl-7-isopropoxy-1-((5-oxopyrrolidin-2-yl)methoxy)isoquinolin-4-yl)ethynyl)azetidine-1-carboxylate], the IC50 is 8.1 nM in experiment [1], 0.125 µM in experiment [2], 0.0763 µM in experiment [3] and 22.4 nM in experiment [4].

In the case of `CC(C)Oc1cc2c(OC[C@@H]3CCC(=O)N3)ncc(C#CC3CNC3)c2cc1C(N)=O` [Compound I-25, (S)-4-(azetidin-3-ylethynyl)-7-isopropoxy-1-((5-oxopyrrolidin-2-yl)methoxy)isoquinoline-6-carboxamide], the IC50 is 3.3 nM in experiment [1], 12.7 µM in experiment [2], 2.36 µM in experiment [3] and 1350 nM in experiment [4].

Regarding `CC(C)Oc1cc2c(OC[C@@H]3CCC(=O)N3)ncc(C#CC3CN(C)C3)c2cc1C(N)=O` [Compound I-26, (S)-7-isopropoxy-4-((1-methylazetidin-3-yl)ethynyl)-1-((5-oxopyrrolidin-2-yl)methoxy)isoquinoline-6-carboxamide], the half-maximal inhibitory concentration (IC50) turned out to be 2.6 nM in experiment [1], 0.726 µM in experiment [2], 0.363 µM in experiment [3] and 161 nM in experiment [4].

In the case of `CC(C)Oc1cc2c(OC[C@@H]3CCC(=O)N3)ncc(C#CC3CN(C(C)C)C3)c2cc1C(N)=O` [Compound I-27, (S)-7-isopropoxy-4-((1-isopropylazetidin-3-yl)ethynyl)-1-((5-oxopyrrolidin-2-yl)methoxy)isoquinoline-6-carboxamide], the IC50 in experiment [1] came out at 5.6 nM; in experiment [2], 0.634 µM; in experiment [3] it was 0.176 µM; in experiment [4], 514 nM.
